In PubChem BioAssay AID1549 (Sanford-Burnham Center for Chemical Genomics, 2009):
The source made the active and inactive calls. How the calls were made is not given here.

Target: Influenza A virus M2 proton channel (A/TW/4845/1999 H1N1)
Assay: NMR binding screen, influenza A virus M2 proton channel, Kd (AID 1549)
Conditions: M2 protein

Compound	Kd
Cc1n[nH]c(=S)[nH]c1=O	> 4 mM (inactive)
CCCS(=O)(=O)N1CCN(c2ccccc2F)CC1	> 4 mM (inactive)
C[C@H]1[C@H](C)CC[C@]2(CO)CC[C@]3(C)C(=CCC4[C@@]5(C)CC[C@H](O)C(C)(C)C5CC[C@]43C)[C@H]12 (stereo partly drawn)	> 4 mM (inactive)
COc1ccccc1NC(=O)C1CCCCC1	> 4 mM (inactive)
Nc1ccccc1OC(F)(F)F	> 4 mM (inactive)
CC1=NN(C(N)=S)C(C)(C)C1	> 4 mM (inactive)
O=C(c1cc2ccccc2o1)c1nc2c(n1O)CCCCC2	> 4 mM (inactive)
COc1ccc(NC(=O)c2ccc[n+]([O-])c2)cc1	> 4 mM (inactive)
O=C(O)c1cccnc1Oc1ccccc1	> 4 mM (inactive)
O=C(O)C1(S(=O)(=O)c2ccccc2)CC1	> 4 mM (inactive)
Cc1ccc(Nc2nnns2)cc1C	> 4 mM (inactive)
Nc1nc2ncc(=O)[nH]c2c(=O)[nH]1	> 4 mM (inactive)
C/C(N)=C/C(=O)N1CCCCC1	> 4 mM (inactive)
c1ccc(Cc2nnc3sc(-c4cccnc4)nn23)cc1	> 4 mM (inactive)
COc1cccc(NC(=O)c2ocnc2C)c1	> 4 mM (inactive)
N#Cc1nc(-c2ccccc2Cl)oc1N1CCOCC1	> 4 mM (inactive)
CCn1cnc2sc(C(=O)O)c(C)c2c1=O	> 4 mM (inactive)
Brc1ccc(-c2nc(-c3ccncc3)no2)o1	> 4 mM (inactive)
C=CCSCC=C	> 4 mM (inactive)
COc1ccc2c(c1)O[C@@H]1COc3cc(OC)c(OC)cc3[C@@H]1C2=O	> 4 mM (inactive)
NC(=S)CN1CCCC1=O	> 4 mM (inactive)
CCC(=O)n1nc(-c2ccco2)nc1N	> 4 mM (inactive)
O=c1[nH]c2sc3c(c2c2ncnn12)CCCC3	> 4 mM (inactive)
CSc1nc(-c2ccco2)nn1S(C)(=O)=O	> 4 mM (inactive)

Compound	Kd
O=C(O)/C=C/c1ccc(O)c(O)c1	> 4 mM (inactive)
CCc1noc(C)c1C(=O)N1CCOCC1	> 4 mM (inactive)
Oc1ccccc1N1CCOCC1	> 4 mM (inactive)
Cn1nc(C(=O)N2CCOCC2)c2ccccc2c1=O	> 4 mM (inactive)
Cc1cc(C(=O)O)n[nH]1	> 4 mM (inactive)
O=c1[nH]cc(Nc2ccccc2)c(=O)[nH]1	> 4 mM (inactive)
CC(=O)Nc1c(C)n(C)n(-c2ccccc2)c1=O	> 4 mM (inactive)
CC(=O)OCC(OC(C)=O)C(OC(C)=O)C(OC(C)=O)C(OC(C)=O)C(COC(C)=O)OC(C)=O (stereo not drawn)	> 4 mM (inactive)
Cc1ccccc1NC(=O)N1CCOCC1	> 4 mM (inactive)
CCc1nnsc1C(=O)Nc1nccs1	> 4 mM (inactive)
O=C1CS/C(=N/N=C/c2cccs2)N1	> 4 mM (inactive)
C[C@@H]1CC[C@H]2[C@@H](C)C(=O)O[C@@H]3OC4(C)CC[C@@H]1[C@]32OO4	> 4 mM (inactive)
Cc1cccc(N2C(=O)CC(=O)NC2=O)c1	> 4 mM (inactive)
CS/C(N)=C\C(C)=O	> 4 mM (inactive)
COc1ccccc1/C=C/CN1CCOCC1	> 4 mM (inactive)
O=c1c[n+]([O-])c2ccccc2n1OCc1ccccc1	> 4 mM (inactive)
COC(=O)C[C@H]1C2(C)CC34OC5(C)O[C@@]6([C@H](OC)C(OC(=O)C(C)C)[C@]7(C)C(/C(=C(/OC)C(C)C)C(=O)O[C@H]7c7ccoc7)[C@@]6(O5)[C@H](OC)[C@@]3(OC)C2OC(C)=O)[C@]14C (stereo partly drawn)	> 4 mM (inactive)
O=c1nc(N2CCOCC2)nc2n1CCO2	> 4 mM (inactive)
OC/C=C/c1ccc(O)c(O)c1	> 4 mM (inactive)
CC1CN(C(=O)c2ccncc2)CC(C)O1 (stereo not drawn)	> 4 mM (inactive)
COc1ccc(-c2coc3cc(O)ccc3c2=O)c(O)c1O	> 4 mM (inactive)
CCCCn1c(=O)cc(O)c2ccccc21	> 4 mM (inactive)
O=C1C2C3CCC(O3)C2C(=O)N1c1ccccc1 (stereo not drawn)	> 4 mM (inactive)
Nc1nc(SCc2ccccc2)ns1	> 4 mM (inactive)

Compound	Kd
Cc1nc2[nH]onc2c2nccc(=O)c12	> 4 mM (inactive)
NCc1oc(-c2ccccc2)cc1C(=O)O	> 4 mM (inactive)
Cc1[nH]n(-c2ccccc2)c(=O)c1[N+](=O)[O-]	> 4 mM (inactive)
COC(=O)/C(=C1\OC(=O)C(c2ccccc2)C1=O)c1ccccc1 (stereo not drawn)	> 4 mM (inactive)
O=S(=O)(CCN1CCCC1)c1ccccc1	> 4 mM (inactive)
CCC(=O)OC1[C@@H]2CC3=C4CC(=O)O[C@@H](c5ccoc5)[C@]4(C)CCC3C(C)(C2=O)[C@@H](CC(=O)OC)C1(C)C (stereo partly drawn)	> 4 mM (inactive)
Cn1c(O)c(/C=C2\C=CC=N2)c(=O)[nH]c1=S	> 4 mM (inactive)
CC(=O)Nc1nnc(-c2ccccc2)o1	> 4 mM (inactive)
CCOC(=O)CN1C(=O)c2ccccc2C1=O	> 4 mM (inactive)
CC(=O)O[C@@H]1CC[C@@]2(C)C(CC[C@]3(C)C2CC=C2C4CC(C)(C)CC[C@]4(C(=O)O)CC[C@]23C)C1(C)C (stereo partly drawn)	> 4 mM (inactive)
Cn1nc(C(=O)N2CCCC2)c2ccccc2c1=O	> 4 mM (inactive)
CC(=O)CNc1cc(CNC(C)=O)c(C)cc1C	> 4 mM (inactive)
O=C(O)C1Cc2c([nH]c3ccccc23)CN1 (stereo not drawn)	> 4 mM (inactive)
COC(=O)c1cccc(N)c1	> 4 mM (inactive)
CC(=O)c1ccc(Cc2cnc(N)s2)cc1	> 4 mM (inactive)
COC(=O)[C@@H]1C(O)CC[C@H]2CN3CCc4c([nH]c5ccccc45)[C@@H]3C[C@@H]21 (stereo partly drawn)	> 4 mM (inactive)
O=C(c1cccc(C(F)(F)F)c1)N1CCCC1	> 4 mM (inactive)
CCSc1nc2ccccc2[nH]1	> 4 mM (inactive)
O=C(O)C1CCN(C(=O)c2cccs2)CC1	> 4 mM (inactive)
C=CC(C1=CC(=O)C=CC1=O)c1ccccc1 (stereo not drawn)	> 4 mM (inactive)
O=C1C2C3C=CC(O3)C2C(=O)N1c1ccccc1 (stereo not drawn)	> 4 mM (inactive)
O=C1C=CC(=O)N1c1ccc(N2CCOCC2)cc1	> 4 mM (inactive)
COc1ccc(C2(C)CC(=O)NC2=O)cc1 (stereo not drawn)	> 4 mM (inactive)
CC(=O)c1cccc(NC(=O)N2CCc3ccccc3C2)c1	> 4 mM (inactive)

Compound	Kd
Cc1nc(N)sc1C(=O)Nc1nccs1	> 4 mM (inactive)
NC(=O)CN1CC(=O)NC(=O)C1	> 4 mM (inactive)
NC1CCN(Cc2ccccc2)CC1	> 4 mM (inactive)
Cc1ccccc1N1CCN(C(=O)C2CCCCC2)CC1	> 4 mM (inactive)
CCc1noc(C)c1C(=O)Nc1ncc(C)s1	> 4 mM (inactive)
O=C1CN2C(=N1)N(Cc1ccccc1)c1ccccc12	> 4 mM (inactive)
O=c1[nH]c2ccccc2c(=O)n1CCCO	> 4 mM (inactive)
Cc1ccc(C)n1/N=C1\NC(=O)CS1	> 4 mM (inactive)
COc1ccc2c(c1)[n+](=O)c(C(C)=O)c(C)n2[O-]	> 4 mM (inactive)
Oc1cc(O)c2c(c1)O[C@H](c1cc(O)c(O)c(O)c1)[C@H](O)C2	> 4 mM (inactive)
CSc1nc2[nH]ncc2c(=O)[nH]1	> 4 mM (inactive)
O=C(NC1=NCCS1)c1ccc([N+](=O)[O-])cc1Cl	> 4 mM (inactive)
O=[N+]([O-])c1cccc(CN2CCC(O)CC2)c1	> 4 mM (inactive)
O=C(NC(=S)NN1CCOCC1)c1cccs1	> 4 mM (inactive)
Nc1ncnc(Cl)c1[N+](=O)[O-]	> 4 mM (inactive)
N#Cc1cccc(Cn2nnc(-c3ccccc3)n2)c1	> 4 mM (inactive)
c1ccc(-n2nnnc2-n2cnc3ccccc32)cc1	> 4 mM (inactive)
O=S1(=O)C=C(Nc2ccccc2)CC1	> 4 mM (inactive)
COc1cccc(N2CCN(C(=O)c3cccnc3)CC2)c1	> 4 mM (inactive)
Cc1c(C(=O)Nc2ccncc2)oc2c1C(=O)CC(C)(C)C2	> 4 mM (inactive)
Cc1cc(=O)n2ncn(Cc3ccccc3)c2n1	> 4 mM (inactive)
CN1CCN(C(=O)c2ccccc2C(=O)O)CC1	> 4 mM (inactive)
Cc1cc(C(=O)N2CCOCC2)c(C)o1	> 4 mM (inactive)
Cc1ccc(C)c(C(=O)NCc2ccncc2)c1	> 4 mM (inactive)

Compound	Kd
Cc1ccccc1NC(=O)CC1SC(N)=NC1=O (stereo not drawn)	> 4 mM (inactive)
COc1ccc(-c2coc3cc(OC(C)=O)cc(OC(C)=O)c3c2=O)cc1	> 4 mM (inactive)
CSCCNC(C)=O	> 4 mM (inactive)
CC(=O)Nc1cc(N2C(=O)C=CC2=O)ccc1Cl	> 4 mM (inactive)
CC(C)Nc1nc2n(c(=O)n1)CCN2C(C)C	> 4 mM (inactive)
CSc1ccccc1NC(=O)c1c(C)noc1C	> 4 mM (inactive)
CS(=O)(=O)NC1CCN(Cc2ccccc2)CC1	> 4 mM (inactive)
Cc1cc(N(CN2CCCC2=O)C(=O)c2ccccc2)no1	> 4 mM (inactive)
O=c1cnnc(NCc2ccc(F)cc2)[nH]1	> 4 mM (inactive)
CNc1nnc(CSc2nc(C)cc(C)n2)s1	> 4 mM (inactive)
Cn1c(=O)c2cn3ncccc3c2n(C)c1=O	> 4 mM (inactive)
O=c1c2ccccc2ncn1C1CCCCC1	> 4 mM (inactive)
COc1cc(/C=C/C(=O)/C=C(O)/C=C/c2ccc(O)c(OC)c2)ccc1O	> 4 mM (inactive)
Cc1cc(CN2C(=O)c3ccccc3C2=O)on1	> 4 mM (inactive)
O=C(O)c1ccc(-n2cncn2)cc1	> 4 mM (inactive)
O=C(NC1=NCCS1)c1ccc2snnc2c1	> 4 mM (inactive)
Nc1nnc(SCc2ccc(F)cc2Cl)s1	> 4 mM (inactive)
CC(=O)O[C@H]1C[C@@]2(C)[C@@H](C[C@@H](O)C3[C@]2(C)CC[C@H]2[C@H](C)[C@H](O)CC[C@]32C)/C1=C(/CCC=C(C)C)C(=O)O (stereo partly drawn)	> 4 mM (inactive)
O=C(CSc1cccc2cccnc12)N1CCCC1	> 4 mM (inactive)
Cc1cc(=O)c2c(O)c(C)c(O)cc2o1	> 4 mM (inactive)
COc1ccc2c3c([nH]c2c1)C(C)=NCC3	> 4 mM (inactive)
COC(=O)c1c(OC)cc2c(c1C)Oc1c(Cl)c(O)c(Cl)c(C)c1C(=O)O2	> 4 mM (inactive)
